From PMC6220877, “Modified Peptide Inhibitors of the Keap1–Nrf2 Protein–Protein Interaction Incorporating Unnatural Amino Acids” (Chembiochem, 2018)
“And” between values parts separate entries of the source, which are not always exact repeats. Identical values can stand only once. Marks after values point to notes of the source that are not given here. Where a SMILES comes first, the peptide text is derived from it. [ ]: non-standard residue; d: D form. The star is where a group is joined. 2Thi = N[C@@H](Cc1cccs1)C(=O)O; Cha = N[C@@H](CC1CCCCC1)C(=O)O; X1 = CC(C)C[C@H](N*)c1nnn[nH]1; Tle = CC(C)(C)[C@H](N)C(=O)O; Pip = O=C(O)[C@@H]1CCCCN1; Thz = O=C(O)[C@@H]1CSCN1; NHIsopentyl = CC(C)CCN*; NHBn = c1ccc(CN*)cc1

Assays:
Assay type in all cases: binding
Keap1 Kelch domain [1] = biological target: T1, Keap1 Kelch domain (Homo sapiens, UniProt Q14145); assay: Fluorescence polarisation (FP) competition assay; settings: for IC50: FP assay, Keap1 Kelch domain; for Ki: estimated from FP IC50 by the method described by Kenakin (ref 14), read-out: FP calcd Ki; for Percentage inhibition in FP assay: 100 μM concentration of inhibitor
T1 construct: made in house; host or cells: E. coli BL21 CodonPlus

Keap1 Kelch protein = biological target: T2, Keap1 Kelch protein (Homo sapiens, UniProt Q14145); assay: Differential scanning fluorimetry (DSF) thermal shift screen; settings: 10% DMSO, DPBS pH 7.4, 30 min at RT, 25-95 °C at 1 °C/min, triplicate, Keap1 Kelch Tm 47.0±0.1 °C; for ΔTm at 10 µM: pH 7.4, 10 μM peptide; for DSF ΔTm: 10 μM peptide
T2 construct: made in house; host or cells: E. coli BL21 CodonPlus
Procedure: DPBS at pH 7.4 was added to the wells of a MicroAmp® Optical 96-well reaction plate
containing the peptide inhibitor (10 µM, 10% final DMSO concentration, 40 µL final volume).
The plate was sealed using an optical adhesive cover and covered with aluminium foil to
protect the dye from light. The plate was then transferred to a plate centrifuge and spun down
briefly (200 g, 1 min, RT) to remove any bubbles and collect the solution at the bottom of the
wells. Following a 30 min incubation at RT, the plate was placed into a 7500 Real time PCR
machine and subjected to a standard protein melting protocol8 using the 7500 Software
1°C/min. All measurements were run in triplicate. The raw data were exported to MS Excel
and analysis was performed using a custom script provided by the Structural Genomics
Consortium Oxford.[8] The temperature range over which the protein unfolding occurred was
selected and the maximum and minimum (at temperatures below the maximum intensity)
fluorescence intensities within this range were determined. The processed data were fitted to
the Boltzmann equation by linear regression analysis using the Origin Pro software.

Keap1 Kelch domain [2] = biological target: T1, Keap1 Kelch domain; assay: Isothermal titration calorimetry (ITC); settings: 25 °C, 50 μM protein, 500 μM peptide, 25 mM HEPES pH 7.4, 200 mM NaCl, 5% DMSO, mean of n≥2
Procedure: Isothermal titration calorimetry experiments
The protein was initially dialysed overnight against buffer containing 25 mM HEPES, pH 7.4
and 200 mM NaCl. The protein was diluted to a concentration of 50 μM prior to ITC. Inhibitors
were diluted to an appropriate concentration in dialysis buffer so that the final solution
contained no more than 5% DMSO. To maintain a similar buffer composition for titrations, 5%
DMSO was added to the protein solution. All peptides in this study were used at a
concentration of 500 μM. There were no detectable solubility issues at these concentrations
of the peptides in the dialysis buffer. ITC experiments were performed with a MicroCal PEAQ-
ITC instrument (Malvern Instruments, UK).
speed of around 750 rpm. In total 30 injections were performed for one protein inhibitor
experiment with the first injection of 0.3 μL followed by 29 injections of 1.3 μL and a gap of
120 s between each injection. Data analyses were performed after subtraction of the heats of
dilution for each experiment. The thermodynamic parameters N (stoichiometry), Kd
(dissociation constant/binding affinity), ∆S (entropy change) and ∆H (enthalpy change) were
obtained by using the single-site-binding model of the PEAQ-ITC analysis software (Malvern
Instruments, UK). For each experiment, at least two titrations were performed. Titration data
were analysed independently, and the obtained values were averaged.

T2 sequence (Q14145 321-609 limits assumed): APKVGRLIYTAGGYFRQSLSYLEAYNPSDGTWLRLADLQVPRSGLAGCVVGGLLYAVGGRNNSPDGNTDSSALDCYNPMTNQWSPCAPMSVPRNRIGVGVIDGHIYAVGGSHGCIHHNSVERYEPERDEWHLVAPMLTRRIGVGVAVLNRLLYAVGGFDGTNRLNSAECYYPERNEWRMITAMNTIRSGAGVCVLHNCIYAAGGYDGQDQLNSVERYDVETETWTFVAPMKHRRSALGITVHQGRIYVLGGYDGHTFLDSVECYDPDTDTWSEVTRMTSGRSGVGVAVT
T1 sequence (Q14145 321-609 limits assumed): as above

Compound	IC50 (Keap1 Kelch domain [1])	Ki (Keap1 Kelch domain [1])	ΔTm at 10 µM (Keap1 Kelch protein)	ITC TΔS (Keap1 Kelch domain [2])	ITC ΔG (Keap1 Kelch domain [2])	ITC ΔH (Keap1 Kelch domain [2])	Kd (Keap1 Kelch domain [2])	Percentage inhibition in FP assay (Keap1 Kelch domain [1])	DSF ΔTm (Keap1 Kelch protein)
CC(=O)N[C@@H](CC(=O)O)C(=O)N1CCC[C@H]1C(=O)N[C@@H](CCC(=O)O)C(=O)N[C@H](C(=O)NCC(=O)N[C@@H](CCC(=O)O)C(=O)N[C@@H](CC(C)C)C(=O)NCCC(C)C)[C@@H](C)O [compound 6, Ac‐Asp‐Pro‐Glu‐Thr‐Gly‐Glu‐Leu‐NH‐isopentyl] (Ac-DPETGEL-NHIsopentyl)	745 ± 126 nM	313 nM	~2 °C						
CC(=O)N[C@@H](CC(=O)O)C(=O)N1CCC[C@H]1C(=O)N[C@@H](CCC(=O)O)C(=O)N[C@H](C(=O)NCC(=O)N[C@@H](CCC(=O)O)C(=O)N[C@@H](CC(C)C)C(=O)NCc1ccccc1)[C@@H](C)O [compound 7, Ac‐Asp‐Pro‐Glu‐Thr‐Gly‐Glu‐Leu‐NH‐Bn] (Ac-DPETGEL-NHBn)	888 ± 28 nM	373 nM	~2 °C						
CC(=O)N[C@@H](CC(=O)O)C(=O)N1CCC[C@H]1C(=O)N[C@@H](CCC(=O)O)C(=O)N[C@H](C(=O)NCC(=O)N[C@@H](CCC(=O)O)C(=O)N[C@@H](CC(C)C)c1nnn[nH]1)[C@@H](C)O [compound 8, Ac‐Asp‐Pro‐Glu‐Thr‐Gly‐Glu‐Leu‐TET] (Ac-DPETGE-X1)	374 ± 31 nM	157 nM	6.2 ± 0.3 °C						
CC(=O)N[C@@H](CC(=O)O)C(=O)N1CCC[C@H]1C(=O)N[C@@H](CCC(=O)O)C(=O)N[C@H](C(=O)NCC(=O)N[C@@H](CCC(=O)O)C(=O)N[C@H](C(=O)O)C(C)(C)C)[C@@H](C)O [compound 9, Ac‐Asp‐Pro‐Glu‐Thr‐Gly‐Glu‐Tle‐OH] (Ac-DPETGE[Tle]-OH)	235 ± 16 nM	99 nM	5.8 ± 0.6 °C	-1.69 ± 0.34 kcal/mol	-8.59 ± 0.12 kcal/mol	-10.25 ± 0.21 kcal/mol	580 ± 90 nM		
CC(=O)N[C@@H](CC(=O)O)C(=O)N1CCC[C@H]1C(=O)N[C@@H](CCC(=O)O)C(=O)N[C@H](C(=O)NCC(=O)N[C@@H](CCC(=O)O)C(=O)N[C@@H](Cc1cccs1)C(=O)O)[C@@H](C)O [compound 10, Ac‐Asp‐Pro‐Glu‐Thr‐Gly‐Glu‐Thi‐OH] (Ac-DPETGE[2Thi]-OH)	578 ± 25 nM	243 nM	5.3 ± 0.2 °C						
CC(=O)N[C@@H](CC(=O)O)C(=O)N1CCC[C@H]1C(=O)N[C@@H](CCC(=O)O)C(=O)N[C@H](C(=O)NCC(=O)N[C@@H](CCC(=O)O)C(=O)N[C@@H](CC1CCCCC1)C(=O)O)[C@@H](C)O [compound 11, Ac‐Asp‐Pro‐Glu‐Thr‐Gly‐Glu‐Cha‐OH] (Ac-DPETGE[Cha]-OH)	85 ± 14 nM	36 nM	5.8 ± 0.9 °C	-0.29 ± 0.001 kcal/mol	-9.57 ± 0.21 kcal/mol	-9.83 ± 0.22 kcal/mol	75 ± 6 nM		
CC(=O)N[C@@H](CC(=O)O)C(=O)N1CSC[C@H]1C(=O)N[C@@H](CCC(=O)O)C(=O)N[C@H](C(=O)NCC(=O)N[C@@H](CCC(=O)O)C(=O)N[C@@H](CC(C)C)C(=O)O)[C@@H](C)O [compound 15, Ac‐Asp‐Thp‐Glu‐Thr‐Gly‐Glu‐Leu‐OH] (Ac-D[Thz]ETGEL-OH)	89 ± 6 nM	37 nM	8.3 ± 0.3 °C	-3.84 ± 0.31 kcal/mol	-8.95 ± 0.17 kcal/mol	-12.83 ± 0.33 kcal/mol	310 ± 10 nM		
CC(=O)N[C@@H](CC(=O)O)C(=O)N1CCCC[C@H]1C(=O)N[C@@H](CCC(=O)O)C(=O)N[C@H](C(=O)NCC(=O)N[C@@H](CCC(=O)O)C(=O)N[C@@H](CC(C)C)C(=O)O)[C@@H](C)O [compound 16, Ac‐Asp‐Pip‐Glu‐Thr‐Gly‐Glu‐Leu‐OH] (Ac-D[Pip]ETGEL-OH)	1060 ± 280 nM	447 nM	~2 °C						
Ac-DPENGEL-OH [compound 14, Ac‐Asp‐Pro‐Glu‐Asn‐Gly‐Glu‐Leu‐OH]	3040 ± 310 nM	1280 nM	~0.5 °C						
Ac‐Asp‐Pro‐Glu‐Bap‐Gly‐Glu‐Leu‐OH [compound 13]								27 %^[c]	≈ 0.5 °C and 0.5±0.1 °C
Ac‐Asp‐Pro‐Glu‐hPhe‐Gly‐Glu‐Leu‐OH [compound 12]								20 %^[c]	≈ 0.5 °C and 0.8±0.2 °C
